Source: patent US12053506B2, “Romo1-derived antimicrobial peptides and variants thereof” (priority 2019, dated 2024)
No end group written: not given here.

Test system: methicillin-resistant Staphylococcus aureus (ATCC 33591)
Test: not given
Conditions: Tables 11-15, no unit printed
Method: First, each of Pseudomonas aeruginosa (ATCC 27853) and Staphylococcus aureus (ATCC 29213) was cultured in 3% (w/v) TSB (Tryptic Soy Broth) liquid medium at 37° C. and 200 rpm for 4 hours, and then further cultured under the same conditions for 3 hours to a concentration of 5×10^6 CFU/ml. Strain solutions were prepared by diluting each of the further cultured strains with SP (sodium phosphate; 10 mM sodium phosphate, 1% TSB) buffer to a final concentration of 2×10^5 CFU/ml.
(§1) Then, each peptide at varying concentrations (0 μg/ml to 300 μg/ml) was dispensed into each well of a 96-well microplate, and 100 μl (1×10^5 CFU/ml) of each of the prepared strain solutions was added thereto, mixed therewith, and allowed to react with the peptide in an incubator at 37° C. for 1 hour.
In addition, 30 g/L of TS (tryptic soy) and 15 g/L of agar were dissolved in distilled water and sterilized, and then 25 ml of the solution was poured onto a 100 mm round plate and solidified at room temperature for one day or more, thereby preparing a TS agar plate. 10 μl of each reaction solution of the peptide and the strain was plated on the TS agar plate at a constant size, and incubated in an incubator at 37° C. for 18 hours, and then colony formation on the plate was checked.
Specifically, each type of bacteria was cultured in 3% (w/v) TSB (Tryptic Soy Broth) liquid medium at 37° C. and 200 rpm for 4 hours, and then further cultured under the same conditions for 3 hours to a concentration of 5×10^6 CFU/ml. Strain solutions were prepared by diluting each of the […] of 2×10^5 CFU/ml.
as §1, with “Then, the KU-5878” for “Then, each”
In addition, 10 μl of each reaction solution of the peptide and the strain was plated on the TS agar plate at a constant size, and incubated in an incubator at 37° C. for 18 hours, and then colony formation on the plate was checked.

Row | Sequence | MBC MRSA [µg/mL]
1 | KTMMQSGGTFGTFMAIGMGTR [KU-5878-I77T] | > 300
2 | KTMMQSGGTFGTFMAKGMGIR [KU-5878-I73K] | > 300
3 | KTMMQSGGTFGTFMAWGMGIR [KU-5878-I73W] | > 300
4 | KTMMQSGGTFGTFMGIGMGIR [KU-5878-A72G] | > 300
5 | KTMMQSGGTFGTKMAIGMGIR [KU-5878-F70K] | > 300
6 | KTMMQSGGTFGTWMAIGMGIR [KU-5878-F70W] | > 300
7 | KTMMQSGGTWGTFMAIGMGIR [KU-5878-F67W] | 90
8 | KTMMQTGGTFGTFMAIGMGIR [KU-5878-S63T] | > 300
9 | KTMMRSGGTFGTFMAIGMGIR [KU-5878-Q62R] | 90
10 | KTMMSSGGTFGTFMAIGMGIR [KU-5878-Q62S] | > 300

Test system: CRPA
Test: MBC, evaluation of antibacterial activities of KU-5878 variants
Format: cell-based
Conditions: Tables 11-15, no unit printed
Method: Variants were prepared by deleting one amino acid from the amino acid sequence of KU-5878 (SEQ ID NO: 13), and the antibacterial activities thereof were evaluated.
Variants were prepared by deleting two or more amino acids from the amino acid sequence of KU-5878 (SEQ ID NO: 13), and the antibacterial activities thereof were evaluated.
One amino acid in the amino acid sequence of KU-5878 (SEQ ID NO: 13) was substituted, and the antibacterial activities of the peptides were evaluated.
Substitutions of Q62K, S63K and T66K were sequentially added to the amino acid sequence of KU-5878-T59K, and the antibacterial activities of the peptides were evaluated.
An amino acid repeat sequence was added to the C-terminus of KU-5878, and the antibacterial activities of the peptides were evaluated. According to Table 15 below, when the R (arginine) repeat sequence or K (lysine) sequence was added to the C-terminus of KU-5878, the antibacterial activity of the peptide increased.

Row | Sequence | MBC CRPA [µg/mL]
11 | KTMMQSGGTFGTFMAIGMGTR [KU-5878-I77T] | > 300
12 | KTMMQSGGTFGTFMAKGMGIR [KU-5878-I73K] | > 300
13 | KTMMQSGGTFGTFMAWGMGIR [KU-5878-I73W] | 300
14 | KTMMQSGGTFGTFMGIGMGIR [KU-5878-A72G] | > 300
15 | KTMMQSGGTFGTKMAIGMGIR [KU-5878-F70K] | > 300
16 | KTMMQSGGTFGTWMAIGMGIR [KU-5878-F70W] | 300
17 | KTMMQSGGTWGTFMAIGMGIR [KU-5878-F67W] | 80
18 | KTMMQTGGTFGTFMAIGMGIR [KU-5878-S63T] | > 300
19 | KTMMRSGGTFGTFMAIGMGIR [KU-5878-Q62R] | 80
20 | KTMMSSGGTFGTFMAIGMGIR [KU-5878-Q62S] | > 300

Test system: Staphylococcus aureus (ATCC 29213)
Test: not given
Format: cell-based
Conditions: ATCC 29213, 1 h
From the text: (§2) Romo1 protein comprises two α-helices. The present inventors synthesized the α-helix 2 region having both hydrophilicity and hydrophobicity, and evaluated the antibacterial activity thereof using minimum bactericidal concentration (MBC) assay. The α-helix 2 region was named KU-5279 (the 52-79 amino acid region of Romo1 protein). Then, in order to identify peptides that are beneficial for human application and have excellent antibacterial activity, the present inventors synthesized several peptides comprising a sequence of contiguous amino acids starting at any amino acid selected from the 52-79 amino acid region of Romo1 protein, and comparatively evaluated the antibacterial activities of the peptides by minimum bactericidal concentration assay (See Table 1 below for information on each peptide). Evaluation of the antibacterial activity of each peptide by minimum bactericidal concentration assay was specifically performed as follows. First, each of Pseudomonas aeruginosa (ATCC 27853) and Staphylococcus aureus (ATCC 29213) was cultured in 3% (w/v) TSB (Tryptic Soy Broth) liquid medium at 37° C. and 200 rpm for 4 hours, and then further cultured under the same conditions for 3 hours to a concentration of 5×10^6 CFU/ml. Strain solutions were prepared by diluting each of the further cultured strains with SP (sodium phosphate; 10 mM sodium phosphate, 1% TSB) buffer to a final concentration of 2×10^5 CFU/ml. Then, each peptide at varying concentrations (0 μg/ml to 300 μg/ml) was dispensed into each well of a 96-well microplate, and 100 μl (1×10^5 CFU/ml) of each of the prepared strain solutions was added thereto, mixed therewith, and allowed to react with the peptide in an incubator at 37° C. for 1 hour. In addition, 30 g/L of TS (tryptic soy) and 15 g/L of agar were dissolved in distilled water and sterilized, and then 25 ml of the solution was poured onto a 100 mm round plate and solidified at room temperature for one day or more, thereby preparing a TS agar plate. 10 μl of each reaction solution of the peptide and the strain was plated on the TS agar plate at a constant size, and incubated in an incubator at 37° C. for 18 hours, and then colony formation on the plate was checked. The minimum bactericidal concentration was defined as the minimum concentration of the peptide at which no colony was formed, and the experimental results are shown in Table 1 below.

Row | Sequence | MBC value (μg/ml) against Staphylococcus aureus [µg/mL]
21 | KTMMQSGGTFGTFMAIGMGTR [KU-5878-I77T] | >300
22 | KTMMQSGGTFGTFMAKGMGIR [KU-5878-I73K] | >300
23 | KTMMQSGGTFGTFMAWGMGIR [KU-5878-I73W] | 300
24 | KTMMQSGGTFGTFMGIGMGIR [KU-5878-A72G] | 350
25 | KTMMQSGGTFGTKMAIGMGIR [KU-5878-F70K] | >300
26 | KTMMQSGGTFGTWMAIGMGIR [KU-5878-F70W] | 300
27 | KTMMQSGGTWGTFMAIGMGIR [KU-5878-F67W] | 80

Same assay, conditions: Tables 11-15, no unit printed

Row | Sequence | MBC Staphylococcus aureus [µg/mL]
28 | KTMMQSGGTFGTFMAIGMGTR [KU-5878-I77T] | > 300
29 | KTMMQSGGTFGTFMAKGMGIR [KU-5878-I73K] | > 300
30 | KTMMQSGGTFGTFMAWGMGIR [KU-5878-I73W] | 300
31 | KTMMQSGGTFGTFMGIGMGIR [KU-5878-A72G] | > 300
32 | KTMMQSGGTFGTKMAIGMGIR [KU-5878-F70K] | > 300
33 | KTMMQSGGTFGTWMAIGMGIR [KU-5878-F70W] | 300
34 | KTMMQSGGTWGTFMAIGMGIR [KU-5878-F67W] | 80
35 | KTMMQTGGTFGTFMAIGMGIR [KU-5878-S63T] | > 300
36 | KTMMRSGGTFGTFMAIGMGIR [KU-5878-Q62R] | 80
37 | KTMMSSGGTFGTFMAIGMGIR [KU-5878-Q62S] | > 300

Test system: Pseudomonas aeruginosa (ATCC 27853)
Test: not given
Format: cell-based
Conditions: ATCC 27853, 1 h
From the text: as §2

Row | Sequence | MBC value (μg/ml) against Pseudomonas aeruginosa [µg/mL]
38 | KTMMQSGGTFGTFMAIGMGTR [KU-5878-I77T] | >300
39 | KTMMQSGGTFGTFMAKGMGIR [KU-5878-I73K] | >300
40 | KTMMQSGGTFGTFMAWGMGIR [KU-5878-I73W] | 300
41 | KTMMQSGGTFGTFMGIGMGIR [KU-5878-A72G] | 350
42 | KTMMQSGGTFGTKMAIGMGIR [KU-5878-F70K] | >300
43 | KTMMQSGGTFGTWMAIGMGIR [KU-5878-F70W] | 300
44 | KTMMQSGGTWGTFMAIGMGIR [KU-5878-F67W] | 80

Same assay, conditions: Tables 11-15, no unit printed

Row | Sequence | MBC Pseudomonas aeruginosa [µg/mL]
45 | KTMMQSGGTFGTFMAIGMGTR [KU-5878-I77T] | > 300
46 | KTMMQSGGTFGTFMAKGMGIR [KU-5878-I73K] | > 300
47 | KTMMQSGGTFGTFMAWGMGIR [KU-5878-I73W] | 300
48 | KTMMQSGGTFGTFMGIGMGIR [KU-5878-A72G] | > 300
49 | KTMMQSGGTFGTKMAIGMGIR [KU-5878-F70K] | > 300
50 | KTMMQSGGTFGTWMAIGMGIR [KU-5878-F70W] | 300
51 | KTMMQSGGTWGTFMAIGMGIR [KU-5878-F67W] | 80
52 | KTMMQTGGTFGTFMAIGMGIR [KU-5878-S63T] | > 300
53 | KTMMRSGGTFGTFMAIGMGIR [KU-5878-Q62R] | 80
54 | KTMMSSGGTFGTFMAIGMGIR [KU-5878-Q62S] | > 300
